pIC50: −log10 of the molar value.

37 compounds from ChEMBL document CHEMBL4396960, “Optimization of 1,3-disubstituted urea-based inhibitors of Zika virus infection” (Bioorg Med Chem Lett, 2019) can be followed below.

In series [1] the test system is A549. The experiment in a line: Cytotoxicity against human A549 cells assessed as reduction in cell viability at <= 1 uM by MTT assay. It is filed as cell-based. (Tetrazolium assays rely on reduction of a dye to a coloured formazan, in cell work by metabolically active cells.)
The test system of series [2] is A549. The experiment in a line: Cytotoxicity against human A549 cells assessed as reduction in cell viability at > antiviral IC50 by MTT assay. It is filed as cell-based.
For series [3], the system named is Zika virus. The experiment in a line: Antiviral activity against Zika virus infected in human A549 cells assessed as reduction in viral titer incubated for 48 hrs by plaque assay. To be noted: A549, 48 h. It is filed as functional, organism-based.
Series [4] has as its system Zika virus. The experiment in a line: Potency index, ratio of ASN 07115873 to compound IC50 for Antiviral activity against Zika virus infected in human A549 cells. In kind it is functional.

As usually defined, the pIC50 is the negative decadic logarithm of the IC50, by convention in mol/L. For the compound `C=CCSc1nsc(NC(=S)Nc2ccc(I)cc2)n1`, the Activity result in the series on A549 [1] is “Non-Toxic”; in the series with A549 [2], “>= 50%”. Further, in the series with Zika virus [3], the pIC50 is 5.59.
In the case of `C=CCSc1nsc(NC(=O)Nc2ccc(I)cc2)n1`, the Activity result with A549 [1] is reported as “Non-Toxic”; in the series on A549 [2], “>= 50%”. In the series with Zika virus [3], the pIC50 was 9.38.
On the same counts, the results for `C=CCSc1nnc(NC(=S)Nc2ccc(Br)cc2)s1` are “Non-Toxic”, “>= 50%” and 9.83.
The like results for `C=CCSc1nc(NC(=S)Nc2ccc(Cl)cc2)ns1` were, in that order, “Non-Toxic”, “>= 50%” and 5.59.
On the same counts, the results for `C#CCSc1nsc(NC(=O)Nc2ccc(Br)cc2)n1` are “Non-Toxic”, “>= 50%” and 9.18.
`C=CCNc1nc(NC(=O)Nc2ccc(Cl)c(C(F)(F)F)c2)ns1`: the Activity entry in the series with A549 [1] was “Non-Toxic”; with A549 [2], “>= 50%”. Moreover, the pIC50 in the series with Zika virus [3] is 9.95.
The like results for `C#CCSc1nsc(NC(=O)Nc2ccc(Cl)cc2)n1` were, in that order, “Non-Toxic”, “>= 50%” and 8.85.
Turning to `CCCSc1nnc(NC(=O)Nc2ccc(Cl)c(C(F)(F)F)c2)s1`, in the series on Zika virus [3], the pIC50 is 9.83.
Still for that read-out and setting: for `C=CCSc1nc(NC(=S)Nc2ccc(Br)cc2C(F)(F)F)ns1` the value was 5.54; for `O=C(Nc1ccc(Cl)c(C(F)(F)F)c1)Nc1nnc(S)s1`, 9.01.
On to `C=CCNc1nc(NC(=O)Nc2ccc(Cl)cc2)ns1`, for which the Activity result in the series on A549 [1] was “Non-Toxic”; in the series on A549 [2], “>= 50%”. In addition, in the series with Zika virus [4], the “Ratio IC50” value came out at 2.2. Further, in the series with Zika virus [3], the pIC50 is 10.07.
On to `C=CCSc1nnc(NC(=S)Nc2ccc(Cl)c(C(F)(F)F)c2)s1`, for which the Activity result is reported as “Non-Toxic” with A549 [1] and “>= 50%” in the series with A549 [2]. In the series on Zika virus [3], the pIC50 is 10.01.
On the same counts, the results for `C=CCSc1nnc(NC(=O)Nc2ccc(Cl)cc2)s1` are “Non-Toxic”, “>= 50%” and 9.72.
Regarding `C#CCSc1nsc(NC(=O)Nc2ccc(Cl)c(C(F)(F)F)c2)n1`, the Activity result is “Non-Toxic” in the series with A549 [1] and “>= 50%” in the series on A549 [2]. Further, the negative logarithm of the IC50 (pIC50) with Zika virus [3] was 9.02.
On the same counts, the results for `C=CCSc1nnc(NC(=S)Nc2ccc(I)cc2)s1` are “Non-Toxic”, “>= 50%” and 9.81.
The like results for `C=CCSc1nsc(NC(=S)Nc2ccc(Cl)cc2)n1` were, in that order, “Non-Toxic”, “>= 50%” and 6.31.
The like results for `C=CCSc1nc(NC(=O)Nc2ccc(Cl)c(C(F)(F)F)c2)ns1` were, in that order, “Non-Toxic”, “>= 50%” and 6.00.
For the compound `C=CCSc1nc(NC(=S)Nc2ccc(Cl)c(C(F)(F)F)c2)ns1`, the Activity entry was “Non-Toxic” in the series with A549 [1] and “>= 50%” with A549 [2]. The pIC50 with Zika virus [3] is 6.63.
The like results for `C=CCSc1nc(NC(=S)Nc2ccc(I)cc2)ns1` were, in that order, “Non-Toxic”, “>= 50%” and 5.57.
On the same counts, the results for `C=CCSc1nnc(NC(=O)Nc2ccc(Br)cc2)s1` are “Non-Toxic”, “>= 50%” and 9.84.
Take `C=CCSc1nsc(NC(=S)Nc2ccc(Br)cc2)n1`: the Activity entry in the series on A549 [1] is “Non-Toxic”; with A549 [2] it was “>= 50%”. The pIC50 in the series on Zika virus [3] was 5.68.
The like results for `C#CCSc1nsc(NC(=S)Nc2ccc(Br)cc2)n1` were, in that order, “Non-Toxic”, “>= 50%” and 6.15.
Turning to `C=CCSc1nc(NC(=O)Nc2ccc(Br)cc2)ns1`, the Activity result with A549 [1] is reported as “Non-Toxic”; in the series on A549 [2] it was “>= 50%”. Further, in the series on Zika virus [3], the pIC50 is 5.89.
The like results for `C#CCSc1nsc(NC(=S)Nc2ccc(Cl)c(C(F)(F)F)c2)n1` were, in that order, “Non-Toxic”, “>= 50%” and 7.24.
Turning to `C=CCSc1nnc(NC(=S)Nc2ccc(Br)cc2C(F)(F)F)s1`, the pIC50 with Zika virus [3] was 7.33.
`C=CCSc1nsc(NC(=S)Nc2ccc(Cl)c(C(F)(F)F)c2)n1`: the Activity entry in the series on A549 [1] was “Non-Toxic”; in the series on A549 [2], “>= 50%”. In the series with Zika virus [3], the pIC50 is 8.31.
The like results for `C=CCSc1nsc(NC(=O)Nc2ccc(Cl)c(C(F)(F)F)c2)n1` were, in that order, “Non-Toxic”, “>= 50%” and 9.37.
Turning to `C=CCNc1nc(NC(=O)Nc2ccc(Br)cc2)ns1`, the Activity result in the series on A549 [1] is given as “Non-Toxic”; in the series on A549 [2], “>= 50%”. Besides, the pIC50 in the series on Zika virus [3] was 10.01.
On the same counts, the results for `C#CCSc1nsc(NC(=O)Nc2ccc(I)cc2)n1` are “Non-Toxic”, “>= 50%” and 9.09.
The like results for `C=CCNc1nc(NC(=O)Nc2ccc(I)cc2)ns1` were, in that order, “Non-Toxic”, “>= 50%” and 10.00.
On the same counts, the results for `C=CCSc1nnc(NC(=O)Nc2ccc(Cl)c(C(F)(F)F)c2)s1` are “Non-Toxic”, “>= 50%” and 9.96.
Turning to `C=CCSc1nc(NC(=S)Nc2ccc(Br)cc2)ns1`, the Activity result is reported as “Non-Toxic” in the series on A549 [1] and “>= 50%” with A549 [2]. The pIC50 in the series on Zika virus [3] is 5.39.
On the same counts, the results for `C=CCSc1nc(NC(=O)Nc2ccc(I)cc2)ns1` are “Non-Toxic”, “>= 50%” and 5.92.
The like results for `C=CCSc1nsc(NC(=O)Nc2ccc(Cl)cc2)n1` were, in that order, “Non-Toxic”, “>= 50%” and 9.72.
As to `C=CCSc1nnc(NC(=O)Nc2ccc(Br)cc2C(F)(F)F)s1`, in the series on Zika virus [3], the pIC50 is 5.04.
On to `C=CCSc1nsc(NC(=O)Nc2ccc(Br)cc2)n1`, for which the Activity entry in the series with A549 [1] is listed as “Non-Toxic”; with A549 [2], “>= 50%”. Further, the pIC50 in the series on Zika virus [3] was 9.48.
On the same counts, the results for `C=CCSc1nnc(NC(=O)Nc2ccc(I)cc2)s1` are “Non-Toxic”, “>= 50%” and 9.75.
